Measurements from patent US20070117743A1, “New antitumoral compounds” (priority 2003, published 2007).
Like-named read-outs stand apart in the source and are kept apart here.

What was measured:
Type in all cases: cell-based, human
A-549 = test: SRB colorimetric assay of cell growth and viability, A-549; conditions: 48 hours exposure; for GI50: read-out: GI50 A-549; for CC50: read-out: LC50 A-549
SK-MEL-28 = test: SRB colorimetric assay of cell growth and viability, SK-MEL-28; conditions: 48 hours exposure; for CC50: read-out: LC50 MEL-28
HT-29 = test: SRB colorimetric assay of cell growth and viability, HT-29; conditions: 48 hours exposure; for GI50: read-out: GI50 HT-29; for CC50: read-out: LC50 HT-29
LoVo = test: SRB colorimetric assay of cell growth and viability, LoVo; conditions: 48 hours exposure; for CC50: read-out: LC50 LOVO
LoVo-Dox = test: SRB colorimetric assay of cell growth and viability, LoVo-Dox; conditions: 48 hours exposure; for CC50: read-out: LC50 LOVO-DOX
How it was run: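 Human tumor cells seeded at 5×10^3/well in RPMI 1640 10% FBS, attached 18 hours, then exposed 48 hours to compound (10 to 10^−8 μg/mL). TCA-fixed, SRB-stained, OD 490 nm; triplicates give GI, TGI and LC values.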

DU-145 = test: SRB colorimetric assay of cell growth and viability, DU-145; conditions: 48 hours exposure
LNCaP = test: SRB colorimetric assay of cell growth and viability, LNCaP; conditions: 48 hours exposure; for GI50: read-out: GI50 LN-caP; for CC50: read-out: LC50 LN-caP
Description: The finality of this assay is to interrupt the growth of a “in vitro” tumor cell culture by means a continued exhibition of the cells to the sample to be testing.
This form of the assay employs 96 well cell culture microplates of 9 mm diameter (Faircloth, 1988; Mosmann, 1983). Most of the cell lines are obtained from American Type Culture Collection (ATCC) derived from different human cancer types.
Cells are maintained in RPMI 1640 10% FBS, supplemented with 0.1 g/l penicillin and 0.1 g/l streptomycin sulfate and then incubated at 37° C., 5% CO2 and 98% humidity. For the experiments, cells were harvested from subconfluent cultures using trypsin and resuspended in fresh medium before plating.
Cells are seeded in 96 well microtiter plates, at 5×10^3 cells per well in aliquots of 195 μL medium, and they are allowed to attach to the plate surface by growing in drug free medium for 18 hours. Afterward, samples are added in aliquots of 5 μL in a ranging from 10 to 10^−8 μg/mL, dissolved in DMSO:EtOH:PBS (0.5:0.5:99). After 48 hours exposure, the antitumor effect are measured by the SRB methodology: cells are fixed by adding 50 μL of cold 50% (wt/vol) trichloroacetic acid (TCA) and incubating for 60 minutes at 4° C. Plates are washed with deionized water and dried. One hundred μL of SRB solution (0.4% wt/vol in 1% acetic acid) is added to each microtiter well and incubated for 10 minutes at room temperature. Unbound SRB is removed by washing with 1% acetic acid. Plates are air dried and bound stain is solubilized with Tris buffer. Optical densities are read on a automated spectrophotometric plate reader at a single wavelength of 490 nm.
The values for mean+/− SD of data from triplicate wells are calculated. Some parameters for cellular responses can be calculated: GI=growth inhibition, TGI=total growth inhibition (cytostatic effect) and LC=cell killing (cytotoxic effect).

IGROV-1 = test: SRB colorimetric assay of cell growth and viability, IGROV-1; conditions: 48 hours exposure
IGROV-ET = test: SRB colorimetric assay of cell growth and viability, IGROV-ET; conditions: 48 hours exposure; for CC50: read-out: LC50 IGROV-ET
HeLa = test: SRB colorimetric assay of cell growth and viability, HeLa; conditions: 48 hours exposure; for CC50: read-out: LC50 HELA
HeLa-APL = test: SRB colorimetric assay of cell growth and viability, HeLa-APL; conditions: 48 hours exposure; for CC50: read-out: LC50 HELA-APL
K-562 = test: SRB colorimetric assay of cell growth and viability, K-562; conditions: 48 hours exposure; for CC50: read-out: LC50 K-562
PANC-1 = test: SRB colorimetric assay of cell growth and viability, PANC-1; conditions: 48 hours exposure; for CC50: read-out: LC50 PANC-1

## C/C=C1\NC(=O)[C@H](Cc2ccccc2)NC(=O)[C@@H](C(C)C)NC(=O)[C@@H]([C@@H](C)CC)NC(=O)[C@H](NC(=O)[C@H](NC(=O)[C@H](CCCN)NC(=O)[C@H]2CCCN2C(=O)[C@H](NC(=O)[C@@H](NC(=O)[C@@H](NC(=O)[C@H](NC(=O)CCCC(C)C)[C@H](C)O)[C@@H](C)O)C(C)C)C(C)C)[C@@H](C)CC)[C@@H](C)OC(=O)[C@H](C(C)C)NC1=O [Compound 41, [D-Thr^13]-KF]
A-549
  TGI A-549: 2.72E−06 Molar
  GI50: 1.63 µM
  CC50: 4.53 µM
SK-MEL-28
  GI50: 1.23 µM
  TGI MEL-28: 2.20E−06 Molar
  CC50: 3.96 µM
HT-29
  TGI HT-29: 1.57E−06 Molar
  GI50: 0.73 µM
  CC50: 3.41 µM
LoVo
  GI50: 0.155 µM
  TGI LOVO: 7.23E−07 Molar
  CC50: 2.9 µM
LoVo-Dox
  GI50: 0.126 µM
  TGI LOVO-DOX: 2.53E−07 Molar
  CC50: 0.509 µM
DU-145
  GI50: 1 µM
  LC50 (concentration causing 50% net cell kill): 3.73 µM
  TGI DU-145: 1.93E−06 Molar
LNCaP
  TGI LN-caP: 6.76E−06 Molar
  GI50: 2.28 µM
  CC50: ≥ 6.76 µM
IGROV-1
  GI50: 0.777 µM
  LC50 (concentration causing 50% net cell killing): 3.13 µM
  TGI IGROV: 1.56E−06 Molar
IGROV-ET
  GI50: 0.515 µM
  TGI IGROV-ET: 1.35E−06 Molar
  CC50: 3.16 µM
HeLa
  GI50: 1.02 µM
  TGI HELA: 2.00E−06 Molar
  CC50: 3.94 µM
HeLa-APL
  GI50: 1.24 µM
  TGI HELA-APL: 2.15E−06 Molar
  CC50: 3.74 µM
K-562
  GI50: 5.85 µM
  TGI K-562: 6.76E−06 Molar
  CC50: ≥ 6.76 µM
PANC-1
  GI50: 2.69 µM
  TGI PANC-1: 6.76E−06 Molar
  CC50: ≥ 6.76 µM

## C/C=C1\NC(=O)[C@H](Cc2ccccc2)NC(=O)[C@@H](C(C)C)NC(=O)[C@@H]([C@@H](C)CC)NC(=O)[C@H](NC(=O)[C@H](NC(=O)[C@H](CCCN)NC(=O)[C@@H]2CCCN2C(=O)[C@H](NC(=O)[C@@H](NC(=O)[C@@H](NC(=O)[C@H](NC(=O)CC[C@@H](C)CC)C(C)C)[C@@H](C)O)C(C)C)C(C)C)[C@@H](C)CC)[C@@H](C)OC(=O)[C@H](C(C)C)NC1=O [Compound 59, [Pro^9, (4S)-MeHex^14]-KF]
A-549; A-549
  TGI A-549: 6.76E−06 Molar
  GI50: ≥ 6.76 µM
  CC50: ≥ 6.76 µM
SK-MEL-28; SRB
  GI50: ≥ 6.76 µM
  TGI MEL-28: 6.76E−06 Molar
  CC50: ≥ 6.76 µM
HT-29; HT-29
  TGI HT-29: 6.76E−06 Molar
  GI50: ≥ 6.76 µM
  CC50: ≥ 6.76 µM
LoVo; LOVO
  GI50: 5.28 µM
  TGI LOVO: 6.76E−06 Molar
  CC50: ≥ 6.76 µM
LoVo-Dox; LOVO-DOX
  GI50: ≥ 6.76 µM
  TGI LOVO-DOX: 6.76E−06 Molar
  CC50: ≥ 6.76 µM
DU-145; SRB
  GI50: ≥ 6.76 µM
  LC50 (concentration causing 50% net cell kill): ≥ 6.76 µM
  TGI DU-145: 6.76E−06 Molar
LNCaP; SRB
  TGI LN-caP: 6.76E−06 Molar
  GI50: 4.52 µM
  CC50: ≥ 6.76 µM
IGROV-1; SRB
  GI50: ≥ 6.76 µM
  LC50 (concentration causing 50% net cell killing): ≥ 6.76 µM
  TGI IGROV: 6.76E−06 Molar
IGROV-ET; SRB
  GI50: ≥ 6.76 µM
  TGI IGROV-ET: 6.76E−06 Molar
  CC50: ≥ 6.76 µM
HeLa; HELA
  GI50: ≥ 6.76 µM
  TGI HELA: 6.76E−06 Molar
  CC50: ≥ 6.76 µM
HeLa-APL; HELA-APL
  GI50: ≥ 6.76 µM
  TGI HELA-APL: 6.76E−06 Molar
  CC50: ≥ 6.76 µM
K-562; K-562
  GI50: ≥ 6.76 µM
  TGI K-562: 6.76E−06 Molar
  CC50: ≥ 6.76 µM
PANC-1; PANC-1
  GI50: ≥ 6.76 µM
  TGI PANC-1: 6.76E−06 Molar
  CC50: ≥ 6.76 µM
